Values quoted from earlier work in patent US6366801B1, “Pharmaceutically enhanced low-energy radiosurgery” (Sirius Medicine, LLC, priority 1997, dated 2002).

Tests used:
brain tumors = details: low-energy x-rays and iodine, brain tumors in rabbits (Iwamoto et al.)
lymphocytes = details: iodine with low-energy photons, lymphocytes (Santos Mello et al.)
cells in vitro = details: iodine concentration of 50 mg/ml, cells in vitro (Dawson et al.)

In the case of `II` [iodine], the dose enhancement (brain tumors) is listed as “about 30%”, the dose enhancement (lymphocytes) is listed as “up to 3” and the “effect on radiation damage to cells” value (cells in vitro) is listed as “radiation enhancement of cell damage”.
